Results published in US9789082B2, “Somatostatin receptor subtype 4 (SSTR4) agonists” (Centrexion Therapeutics Corporation, priority 2013, dated 2017).
Like-named read-outs stand apart in the source and are kept apart here.

Columns and labels:
[1] = target: human SSTR5 (Homo sapiens (Human), UniProt P35346); experiment: Radioligand binding assay, CHO cell membranes expressing recombinant human SSTR5
Source text: (§1) Radioligand Binding Assays
(§2) Method Description for Binding Assays with Human Somatostatin Receptors by Use of CHO Cell Membranes Expressing Recombinant Human SSTR1 or Human SSTR2 or Human SSTR3 or Human SSTR4 or Human SSTR5
(§3) Receptor binding assays refer to a technique in which labeled receptor ligands are used to detect binding to a receptor. In competition experiments test compounds, which are not labeled, compete with the binding side of a labeled ligand. The displacement of the labeled ligand by the test compound leads to a decreased signal.
(§4) For the binding experiments 200 μL of membrane homogenate from one of the following protein amounts is used: hSSTR1 (40 μg/well); hSSTR2 (25 μg/well); hSSTR3 (1.5 μg/well); hSSTR4 (0.5 μg/well); hSSTR5 (25 μg/well). […] The incubation is terminated by filtration with ice cold NaCl 0.9% through polyethyleneimine treated (0.3%) GF/B glass fiber filters using a cell harvester. The protein-bound radioactivity is measured in a suitable reader. The non-specific binding is defined as radioactivity bound in the presence of 1 μM Somatostatin-14 during the incubation period.
(§5) The analysis of the concentration-binding curves is performed by computer-assisted nonlinear least square curve fitting method using the model of one receptor binding site.
(§6) Selectivity data was obtained with the aid of the above described radioligand binding assays.

[2] = target: human SSTR1 (Homo sapiens (Human), UniProt P30872); experiment: Radioligand binding assay, CHO cell membranes expressing recombinant human SSTR1
Sequence of human SSTR1 (P30872 whole entry): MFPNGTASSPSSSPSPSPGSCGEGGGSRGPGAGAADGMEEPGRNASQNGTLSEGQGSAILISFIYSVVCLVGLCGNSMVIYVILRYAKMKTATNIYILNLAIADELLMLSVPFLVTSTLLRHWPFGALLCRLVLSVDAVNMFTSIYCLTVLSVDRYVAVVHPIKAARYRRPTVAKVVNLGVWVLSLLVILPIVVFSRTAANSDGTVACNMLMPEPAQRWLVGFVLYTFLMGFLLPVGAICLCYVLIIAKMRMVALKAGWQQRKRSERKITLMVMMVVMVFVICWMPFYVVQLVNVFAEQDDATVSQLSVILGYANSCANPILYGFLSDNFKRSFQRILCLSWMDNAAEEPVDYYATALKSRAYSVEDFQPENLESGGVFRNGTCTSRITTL
Source text: as §1, §2, §3, §4, §5, §6

[3] = Metabolic stability in pooled human liver microsomes (half-life); type: in vitro ADME; details: 1 μM test compound; for half-life at 1 μM: pooled human liver microsomes, pH 7.6, 37° C., read-out: Half-life t1/2; for Half-life t1/2: 37° C.
Protocol: The metabolic stability of the compounds according to the invention may be investigated as follows:
The metabolic degradation of the test compound is assayed at 37° C. with pooled human liver microsomes. The final incubation volume of 100 μl per time point contains TRIS buffer pH 7.6 at room temperature (0.1 M), magnesium chloride (5 mM), microsomal protein (1 mg/mL) and the test compound at a final concentration of 1 μM. Following a short preincubation period at 37° C., the reactions are initiated by addition of beta-nicotinamide adenine dinucleotide phosphate, reduced form (NADPH, 1 mM), and terminated by transferring an aliquot into solvent after different time points. After centrifugation (10000 g, 5 min), an aliquot of the supernatant is assayed by LC-MS/MS for the amount of parent compound. The half-life is determined by the slope of the semi-logarithmic plot of the concentration-time profile.

[4] = target: human Somatostatin 4 receptor (SSTR4) (Homo sapiens (Human), UniProt P31391); experiment: cAMP assay with human somatostatin 4 receptor (hSSTR4 expressing H4 cells); type: cell-based
Sequence of human Somatostatin 4 receptor (SSTR4) (P31391 whole entry): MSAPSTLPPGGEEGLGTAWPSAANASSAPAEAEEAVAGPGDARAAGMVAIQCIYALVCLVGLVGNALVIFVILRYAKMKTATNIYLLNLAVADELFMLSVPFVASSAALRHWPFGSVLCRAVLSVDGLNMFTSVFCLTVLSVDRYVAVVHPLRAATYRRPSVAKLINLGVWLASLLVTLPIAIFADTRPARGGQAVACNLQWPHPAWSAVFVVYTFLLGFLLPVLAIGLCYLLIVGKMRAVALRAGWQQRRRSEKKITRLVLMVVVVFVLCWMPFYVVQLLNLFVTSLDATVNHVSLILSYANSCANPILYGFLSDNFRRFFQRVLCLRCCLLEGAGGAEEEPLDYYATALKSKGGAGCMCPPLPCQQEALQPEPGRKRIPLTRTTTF

[5] = target: human SSTR3 (Homo sapiens (Human), UniProt P32745); experiment: Radioligand binding assay, CHO cell membranes expressing recombinant human SSTR3
Sequence of human SSTR3 (P32745 whole entry): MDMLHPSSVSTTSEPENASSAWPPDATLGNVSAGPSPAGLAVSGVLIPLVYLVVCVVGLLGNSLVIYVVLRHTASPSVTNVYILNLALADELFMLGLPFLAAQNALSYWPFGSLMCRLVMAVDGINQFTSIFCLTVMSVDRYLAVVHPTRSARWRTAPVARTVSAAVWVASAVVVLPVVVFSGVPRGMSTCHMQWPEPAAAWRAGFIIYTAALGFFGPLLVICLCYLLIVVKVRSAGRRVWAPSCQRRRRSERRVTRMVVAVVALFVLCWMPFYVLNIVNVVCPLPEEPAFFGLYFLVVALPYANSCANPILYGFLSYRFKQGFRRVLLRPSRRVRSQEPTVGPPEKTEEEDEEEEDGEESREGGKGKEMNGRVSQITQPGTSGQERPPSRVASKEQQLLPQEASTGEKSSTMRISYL
Source text: as §1, §2, §3, §4, §5, §6

[6] = target: human SSTR4 (Homo sapiens (Human), UniProt P31391); experiment: Radioligand binding assay, CHO cell membranes expressing recombinant human SSTR4
Sequence of human SSTR4 (P31391 whole entry): as the sequence (P31391 whole entry) above
Source text: as §1, §2, §3, §4, §5, §6

[7] = target: human SSTR2 (Homo sapiens (Human), UniProt P30874); experiment: Radioligand binding assay, CHO cell membranes expressing recombinant human SSTR2
Sequence of human SSTR2 (P30874 whole entry): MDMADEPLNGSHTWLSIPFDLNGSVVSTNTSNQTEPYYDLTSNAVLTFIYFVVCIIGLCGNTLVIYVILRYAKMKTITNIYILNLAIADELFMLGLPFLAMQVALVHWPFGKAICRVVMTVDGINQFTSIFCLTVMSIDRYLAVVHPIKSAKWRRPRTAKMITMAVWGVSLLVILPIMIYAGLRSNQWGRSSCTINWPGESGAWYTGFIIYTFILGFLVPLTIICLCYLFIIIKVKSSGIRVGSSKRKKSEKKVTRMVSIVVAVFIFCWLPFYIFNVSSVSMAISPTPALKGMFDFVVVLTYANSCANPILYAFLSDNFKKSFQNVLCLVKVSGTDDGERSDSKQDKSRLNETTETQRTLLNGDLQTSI
Source text: as §1, §2, §3, §4, §5, §6

[8] = cAMP assay, read-out: SSTR4 agonism EC50

Sequence of human SSTR5 (P35346 whole entry): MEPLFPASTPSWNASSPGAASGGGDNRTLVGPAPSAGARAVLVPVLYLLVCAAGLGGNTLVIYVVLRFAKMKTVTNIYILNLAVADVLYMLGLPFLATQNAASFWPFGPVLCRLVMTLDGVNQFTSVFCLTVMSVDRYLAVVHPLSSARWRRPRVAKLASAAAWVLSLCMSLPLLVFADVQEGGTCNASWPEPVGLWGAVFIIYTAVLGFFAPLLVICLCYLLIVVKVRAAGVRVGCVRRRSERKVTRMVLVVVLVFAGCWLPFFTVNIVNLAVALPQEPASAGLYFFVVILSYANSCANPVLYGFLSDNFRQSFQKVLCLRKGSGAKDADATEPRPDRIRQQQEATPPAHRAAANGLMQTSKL

Cn1nc(C(C)(C)NC(=O)[C@H]2[C@@H]3CNC[C@@H]32)c2ccccc21 [Example 49]
Ki [1]: > 9860 nM | Ki [2]: 4540 nM | half-life at 1 μM [3]: > 2.17 h | EC50 [4, 8]: 0.4 nM | Ki [5]: > 8620 nM | Ki [6]: 4.5 nM | Ki [7]: > 9600 nM

CC(C)(COc1nccc2ccccc12)NC(=O)[C@H]1[C@@H]2CNC[C@@H]21 [Example 56]
Ki [1]: > 9850 nM | Ki [2]: 3460 nM | half-life at 1 μM [3]: > 2.17 h | EC50 [4, 8]: 5.5 nM | Ki [5]: > 8630 nM | Ki [6]: 100 nM | Ki [7]: > 9610 nM

CC(C)(NC(=O)[C@H]1[C@@H]2CNC[C@@H]21)c1noc2c(F)cccc12 [Example 101]
Ki [1]: > 9850 nM | Ki [2]: > 9090 nM | half-life at 1 μM [3]: > 2.17 h | EC50 [4, 8]: 1.2 nM | Ki [5]: > 8600 nM | Ki [6]: 46.2 nM | Ki [7]: > 9600 nM

Cc1cc2ccccc2c(C(C)(C)NC(=O)[C@H]2[C@@H]3CNC[C@@H]32)n1.Cl [Example 22]
Ki [1]: > 9850 nM | Ki [2]: 848 nM | half-life at 1 μM [3]: > 2.17 h | EC50 [4, 8]: 0.4 nM | Ki [6]: 3.7 nM | Ki [7]: > 9590 nM

CC(C)(NC(=O)[C@H]1[C@@H]2CNC[C@@H]21)c1nccc2ccccc12.Cl [Example 24]
Ki [1]: > 9860 nM | Ki [2]: 2820 nM | half-life at 1 μM [3]: > 2.17 h | EC50 ([4]; SSTR4 agonism EC50, cAMP assay): 0.5 nM | Ki [5]: > 8650 nM | Ki [6]: 2.9 nM | Ki [7]: > 9610 nM

CC(C)(COc1cnccc1C(F)(F)F)NC(=O)[C@H]1[C@@H]2CNC[C@@H]21 [Example 63]
Ki [1]: > 8080 nM | Ki [2]: > 7510 nM | half-life at 1 μM [3]: > 2.17 h | EC50 ([4]; SSTR4 agonism EC50, cAMP assay): 4.1 nM | Ki [5]: > 7070 nM | Ki [6]: 68.9 nM | Ki [7]: > 7880 nM

Cc1cccc2c(C(C)(C)NC(=O)[C@H]3[C@@H]4CNC[C@@H]43)n[nH]c12 [Example 93]
Ki [1]: > 9770 nM | Ki [2]: 7030 nM | Half-life t1/2 [3]: >2.17 h | Ki [5]: > 8690 nM | Ki [7]: > 9630 nM

CC(C)(NC(=O)[C@H]1[C@@H]2CNC[C@@H]21)c1n[nH]c2ccccc12 [Example 94]
Ki [1]: > 9770 nM | Ki [2]: > 9480 nM | Half-life t1/2 [3]: >2.17 h | Ki [5]: > 8690 nM | Ki [6]: 15.9 nM | Ki [7]: > 9630 nM

CC(C)(NC(=O)[C@H]1[C@@H]2CNC[C@@H]21)c1nc2ccc(Cl)cc2[nH]1.Cl [Example 11]
Ki [1]: > 9850 nM | Ki [2]: > 8910 nM | half-life at 1 μM [3]: > 2.17 h | EC50 [4, 8]: 8.1 nM | Ki [5]: > 8580 nM | Ki [6]: 106 nM | Ki [7]: > 9590 nM

Cc1cccnc1OCC(C)(C)NC(=O)[C@H]1[C@@H]2CNC[C@@H]21 [Example 47]
Ki [1]: > 9850 nM | Ki [2]: > 9150 nM | half-life at 1 μM [3]: > 2.17 h | EC50 [4, 8]: 3.7 nM | Ki [5]: > 8620 nM | Ki [6]: 39.9 nM | Ki [7]: > 9600 nM

Cc1nc(C(C)(C)NC(=O)[C@H]2[C@@H]3CNC[C@@H]32)c2cccc(C)c2n1 [Example 148]
Ki [1]: > 9770 nM | Ki [2]: 6670 nM | half-life at 1 μM [3]: > 2.17 h | EC50 ([4]; SSTR4 agonism EC50, cAMP assay): 1.1 nM | Ki [5]: > 8690 nM | Ki [6]: 32.3 nM | Ki [7]: > 9630 nM

CCn1nc(C(C)(C)NC(=O)[C@H]2[C@@H]3CNC[C@@H]32)c2ccccc21 [Example 95]
half-life at 1 μM [3]: > 2.17 h | EC50 [4, 8]: 3.6 nM

CC(C)(COc1ncccc1C1CC1)NC(=O)[C@H]1[C@@H]2CNC[C@@H]21 [Example 64]
half-life at 1 μM [3]: > 2.17 h | EC50 [4, 8]: 2 nM

Cc1cccc2c(C(C)(C)NC(=O)[C@H]3[C@@H]4CNC[C@@H]43)ncnc12 [Example 88]
half-life at 1 μM [3]: > 2.17 h | EC50 [4, 8]: 0.8 nM

CC(NC(=O)[C@H]1[C@@H]2CNC[C@@H]21)c1nn(C)c2c(Cl)cccc12 (some centres unmarked) [Example 114]
half-life at 1 μM [3]: > 2.17 h | EC50 [4, 8]: 4.7 nM

Cc1ccnnc1OCC(C)(C)NC(=O)[C@H]1[C@@H]2CNC[C@@H]21.Cl [Example 67]
half-life at 1 μM [3]: > 2.17 h | EC50 [4, 8]: 66.3 nM

CC(C)(COc1cccnc1C(F)(F)F)NC(=O)[C@H]1[C@@H]2CNC[C@@H]21.Cl [Example 18]
half-life at 1 μM [3]: > 2.17 h | EC50 [4, 8]: 20.4 nM

Cc1ccccc1OCC(C)NC(=O)[C@H]1[C@@H]2CNC[C@@H]21.Cl (some centres unmarked) [Example 59]
half-life at 1 μM [3]: > 2.17 h | EC50 [4, 8]: 64.3 nM

Cc1cccc2c(C(C)(C)NC(=O)[C@H]3[C@@H]4CNC[C@@H]43)nn(C)c12 [Example 107]
Ki [1]: > 9850 nM | Ki [2]: 4300 nM | half-life at 1 μM [3]: > 2.17 h | Ki [5]: > 8600 nM | Ki [7]: > 9600 nM

Cc1cccn2c(C(C)(C)NC(=O)[C@H]3[C@@H]4CNC[C@@H]43)nc(C(F)(F)F)c12.Cl [Example 129]
half-life at 1 μM [3]: > 2.17 h | EC50 [4, 8]: 6.8 nM

CC(C)(NC(=O)[C@H]1[C@@H]2CNC[C@@H]21)c1nc(C(F)(F)F)c2ccccn12.Cl [Example 31]
half-life at 1 μM [3]: > 2.17 h | EC50 [4, 8]: 1.9 nM

CCc1ccccc1OCC(C)(C)NC(=O)[C@H]1[C@@H]2CNC[C@@H]21.Cl [Example 39]
half-life at 1 μM [3]: > 2.17 h | EC50 [4, 8]: 3 nM

CC(C)(COc1ccccc1Cl)NC(=O)[C@H]1[C@@H]2CNC[C@@H]21.Cl [Example 42]
half-life at 1 μM [3]: > 2.17 h | EC50 [4, 8]: 14.7 nM

Cn1nc(C(C)(C)NC(=O)[C@H]2[C@@H]3CNC[C@@H]32)c2c(F)cccc21 [Example 74]
half-life at 1 μM [3]: 0.6 h | EC50 [4, 8]: 1.6 nM

Cc1cccn2c(C(C)(C)NC(=O)[C@H]3[C@@H]4CNC[C@@H]43)cnc12 [Example 150]
half-life at 1 μM [3]: > 2.17 h | EC50 [4, 8]: 0.9 nM

CC(C)(NC(=O)[C@H]1[C@@H]2CNC[C@@H]21)c1ncc2c(Cl)cccn12 [Example 143]
half-life at 1 μM [3]: > 2.17 h | EC50 [4, 8]: 0.3 nM

Cc1cccc2c(C(C)NC(=O)[C@H]3[C@@H]4CNC[C@@H]43)nn(C)c12 (single isomer, unassigned) [Example 119]
half-life at 1 μM [3]: > 2.17 h | EC50 [4, 8]: 3.2 nM

CC(C)(COc1nnccc1C(F)(F)F)NC(=O)[C@H]1[C@@H]2CNC[C@@H]21 [Example 58]
half-life at 1 μM [3]: > 2.17 h | EC50 [4, 8]: 22 nM

CC(C)(NC(=O)[C@H]1[C@@H]2CNC[C@@H]21)C1CCc2ccccc2O1.Cl (some centres unmarked) [Example 28]
half-life at 1 μM [3]: > 2.17 h | EC50 [4, 8]: 11.3 nM

Cc1cccn2c([C@H](C)NC(=O)[C@H]3[C@@H]4CNC[C@@H]43)ncc12 [Example 159]
half-life at 1 μM [3]: > 2.17 h | EC50 [4, 8]: 15.4 nM

CC(C)(COc1ccccc1C1CC1)NC(=O)[C@H]1[C@@H]2CNC[C@@H]21 [Example 70]
half-life at 1 μM [3]: > 2.17 h | EC50 [4, 8]: 5.7 nM
